The text below walks through data of the supplement of paper PMC10307832.

Common to all, as to assay: relative viability (nuclei count vs DMSO), 5 days (fraction); higher = more cells survive
Compound in assay [1]: CN(C)C/C=C/C(=O)Nc1cc2c(Nc3ccc(F)c(Cl)c3)ncnc2cc1O[C@H]1CCOC1 [Afatinib] + CC(=O)c1c(C)c2cnc(Nc3ccc(N4CCNCC4)cn3)nc2n(C2CCCC2)c1=O [Palbociclib] (partner 0.5 µM)
The essentials:
(§1)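 Relative viability divides the nuclei count in treated wells by that in vehicle wells. Lung cancer cell lines were seeded in 1536-well plates, dosed by pin tool the next day, and fixed and stained after 5 days in one step with final 0.05% Triton X-100, 1% formaldehyde and 1 ug/ml Hoechst. Dosing was a single drug or a fixed anchor-drug dose plus five library-drug doses (not always all listed) in √10 steps, and values are medians of duplicate plates imaged at 4×.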

Compound in assay [2]: CN(C)C/C=C/C(=O)Nc1cc2c(Nc3ccc(F)c(Cl)c3)ncnc2cc1O[C@H]1CCOC1 [Afatinib] + CC(C)C[C@H](NC(=O)[C@H](Cc1ccccc1)NC(=O)c1cnccn1)B(O)O [Bortezomib] (partner 0.002 µM)
The method in brief: as §1

Compound in assay [3]: CN(C)C/C=C/C(=O)Nc1cc2c(Nc3ccc(F)c(Cl)c3)ncnc2cc1O[C@H]1CCOC1 [Afatinib] + Cc1nc(Nc2ncc(C(=O)Nc3c(C)cccc3Cl)s2)cc(N2CCN(CCO)CC2)n1 [Dasatinib] (partner 0.075 µM)
The essentials:
as §1

Compound in assay [4]: CN(C)C/C=C/C(=O)Nc1cc2c(Nc3ccc(F)c(Cl)c3)ncnc2cc1O[C@H]1CCOC1 [Afatinib] + Cc1nc(NC(=O)N2CCC[C@H]2C(N)=O)sc1-c1ccnc(C(C)(C)C(F)(F)F)c1 [Alpelisib] (partner 2 µM)
The method in brief: as §1

As to LCLC-103H, the relative viability in assay [1] (first compound 0.005 µM) came to 0.452; in assay [1] (first compound 0.01581 µM), 0.495; in assay [1] (first compound 0.05 µM) it was 0.443; in assay [1] (first compound 0.1581 µM), 0.436; in assay [1] (first compound 0.5 µM) it was 0.485; in assay [2] (first compound 0.005 µM), 1.01. The relative viability in assay [2] (first compound 0.01581 µM) worked out at 1.09; in assay [2] (first compound 0.05 µM) it was 1.05; in assay [2] (first compound 0.1581 µM) it was 0.929; in assay [2] (first compound 0.5 µM), 1.12; in assay [3] (first compound 0.005 µM), 0.424; in assay [3] (first compound 0.01581 µM) it was 0.454. Besides, the relative viability came to 0.48 in assay [3] (first compound 0.05 µM); 0.459 in assay [3] (first compound 0.1581 µM); 0.483 in assay [3] (first compound 0.5 µM); 0.806 in assay [4] (first compound 0.005 µM); 1.09 in assay [4] (first compound 0.01581 µM); 0.997 in assay [4] (first compound 0.05 µM). For the same cell line, the figures for the relative viability in assay [4] (first compound 0.1581 µM) and in assay [4] (first compound 0.5 µM) were 0.939 and 1, respectively.
Take NCI-H1666: the relative viability in assay [1] (first compound 0.005 µM) turned out to be 0.656; in assay [1] (first compound 0.01581 µM) it was 0.617; in assay [1] (first compound 0.05 µM) it was 0.645; in assay [1] (first compound 0.1581 µM), 0.673; in assay [1] (first compound 0.5 µM), 0.688; in assay [2] (first compound 0.005 µM), 0.712. For the same cell line, the relative viability was 0.758 in assay [2] (first compound 0.01581 µM); 0.567 in assay [2] (first compound 0.05 µM); 0.8 in assay [2] (first compound 0.5 µM); 0.784 in assay [3] (first compound 0.005 µM); 0.772 in assay [3] (first compound 0.01581 µM); 0.672 in assay [3] (first compound 0.05 µM). For the same cell line, the relative viability in assay [3] (first compound 0.1581 µM) was 0.672; in assay [3] (first compound 0.5 µM) it was 0.776; in assay [4] (first compound 0.005 µM) it was 0.968; in assay [4] (first compound 0.01581 µM), 0.605; in assay [4] (first compound 0.05 µM), 0.505; in assay [4] (first compound 0.5 µM) it was 0.497.
Take NCI-H1734: the relative viability came out at 0.369 in assay [1] (first compound 0.005 µM); 0.34 in assay [1] (first compound 0.01581 µM); 0.298 in assay [1] (first compound 0.05 µM); 0.339 in assay [1] (first compound 0.1581 µM); 0.319 in assay [1] (first compound 0.5 µM); 1.08 in assay [2] (first compound 0.005 µM). In addition, the relative viability is 0.816 in assay [2] (first compound 0.01581 µM); 0.895 in assay [2] (first compound 0.05 µM); 0.921 in assay [2] (first compound 0.1581 µM); 0.922 in assay [2] (first compound 0.5 µM); 0.482 in assay [3] (first compound 0.005 µM); 0.386 in assay [3] (first compound 0.01581 µM). Moreover, the relative viability came to 0.497 in assay [3] (first compound 0.05 µM); 0.491 in assay [3] (first compound 0.1581 µM); 0.444 in assay [3] (first compound 0.5 µM); 0.675 in assay [4] (first compound 0.005 µM); 0.747 in assay [4] (first compound 0.01581 µM); 0.735 in assay [4] (first compound 0.05 µM). The relative viability amounted to 0.697 in assay [4] (first compound 0.1581 µM) and 0.671 in assay [4] (first compound 0.5 µM).
Regarding EPLC-272H, the relative viability in assay [1] (first compound 0.005 µM) stood at 0.31; in assay [1] (first compound 0.01581 µM), 0.294; in assay [1] (first compound 0.05 µM), 0.283; in assay [1] (first compound 0.1581 µM) it was 0.284; in assay [1] (first compound 0.5 µM), 0.292; in assay [2] (first compound 0.005 µM), 0.879. Further, the relative viability in assay [2] (first compound 0.01581 µM) amounted to 0.88; in assay [2] (first compound 0.05 µM), 0.905; in assay [2] (first compound 0.1581 µM), 0.78; in assay [2] (first compound 0.5 µM), 0.861; in assay [3] (first compound 0.005 µM), 0.326; in assay [3] (first compound 0.01581 µM), 0.341. The relative viability in assay [3] (first compound 0.05 µM) was determined as 0.262; in assay [3] (first compound 0.1581 µM), 0.253; in assay [3] (first compound 0.5 µM), 0.244; in assay [4] (first compound 0.005 µM), 0.775; in assay [4] (first compound 0.01581 µM), 0.818; in assay [4] (first compound 0.05 µM), 0.737. In addition, the relative viability in assay [4] (first compound 0.1581 µM) worked out at 0.691; in assay [4] (first compound 0.5 µM), 0.731.
